The assay addresses T1, A3 adenosine receptor (hA3AR) (Homo sapiens, UniProt P0DMS8).
T1 construct: gene ADORA3
T1 sequence (P0DMS8 1-318): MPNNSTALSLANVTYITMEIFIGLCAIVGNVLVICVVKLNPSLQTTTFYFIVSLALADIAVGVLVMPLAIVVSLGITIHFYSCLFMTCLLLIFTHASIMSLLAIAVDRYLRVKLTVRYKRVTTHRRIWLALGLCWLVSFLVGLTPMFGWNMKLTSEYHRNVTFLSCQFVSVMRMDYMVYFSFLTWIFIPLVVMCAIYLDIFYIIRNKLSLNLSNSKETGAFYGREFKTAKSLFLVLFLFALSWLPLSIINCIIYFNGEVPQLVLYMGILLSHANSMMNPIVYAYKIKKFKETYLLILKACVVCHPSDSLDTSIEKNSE
Nature of the assay: positive allosteric modulation of MRS5698 at […] in cAMP assay, CHO-hA3AR (also HL-60 cells). In kind it is cell-based. In general terms: Cyclic AMP is a second messenger, typically raised through Gs and lowered through Gi signalling.

One molecule from PMC11377395 (Purinergic Signalling, 2024) can be followed below.

In the case of `Clc1ccc(Nc2nc3ccccc3c3[nH]c(C4CCCCC4)nc23)cc1Cl` [LUF6000, N-(3,4-Dichloro-phenyl)-2-cyclohexyl-1 H-imidazo[4,5-c]quinolin-4-amine], the “% Emax enhancement” value is given as 19 % Emax enhancement.
